Laboratory results published in PubChem BioAssay (NCI).
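Five concentrations, 48 hours, 96-well plates. Abbreviation: GI50, concentration required for 50% inhibition of growth. TGI: concentration producing complete growth inhibition.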

How the values were obtained:
Assay in all cases: NCI anticancer screen, dose series, 48 h
SF-295 CNS = tested on: SF-295 CNS
ACHN renal = tested on: ACHN renal
UO-31 renal = tested on: UO-31 renal
CAKI-1 renal = tested on: CAKI-1 renal
SK-MEL-28 melanoma = tested on: SK-MEL-28 melanoma
786-0 renal = tested on: 786-0 renal
M14 melanoma = tested on: M14 melanoma
LOX IMVI melanoma = tested on: LOX IMVI melanoma
UACC-257 melanoma = tested on: UACC-257 melanoma
MDA-MB-231 breast = tested on: MDA-MB-231 breast

SMILES | TGI (SF-295 CNS) | TGI (ACHN renal) | TGI (UO-31 renal) | TGI (CAKI-1 renal) | TGI (SK-MEL-28 melanoma) | TGI (786-0 renal) | TGI (M14 melanoma) | TGI (LOX IMVI melanoma) | TGI (UACC-257 melanoma) | GI50 (SF-295 CNS) | GI50 (ACHN renal) | GI50 (UO-31 renal) | GI50 (SK-MEL-28 melanoma) | GI50 (786-0 renal) | GI50 (M14 melanoma) | GI50 (LOX IMVI melanoma) | GI50 (UACC-257 melanoma) | GI50 (MDA-MB-231 breast) | TGI (MDA-MB-231 breast) | GI50 (CAKI-1 renal)
COC1=CC(=O)C2C(C1=O)[C@@H]1c3ccccc3OC(C)(C)[C@H]21 (some centres not stated) | > 100 µM | 27.2 µM | 38.1 µM | 31 µM | 32.8 µM | 33.6 µM | 33.8 µM | 27.2 µM | > 100 µM | – | – | – | – | – | – | – | – | – | – | –
COc1cccc2c1C(=O)c1c(O)c3c(c(O)c1C2=O)C[C@@](O)(C(C)=O)C[C@@H]3OC1CC([N+]([O-])(Cc2ccccc2)Cc2ccccc2)C(O)C(C)O1 (some centres not stated) | 2.88 µM | 2.73 µM | 2.54 µM | 2.47 µM | – | 2.86 µM | 3.07 µM | 2.41 µM | 3.17 µM | – | – | – | – | – | – | – | – | – | – | –
c1ccc2cc(Cn3cc[n+](Cc4ccc5ccccc5c4)c3)ccc2c1 | 19.6 µM | 27.6 µM | 28.8 µM | – | 3.36 µM | 19 µM | 8.34 µM | 2.39 µM | 2.55 µM | 3.65 µM | 13.7 µM | 12.1 µM | 1.2 µM | 4.4 µM | 1.43 µM | 1.1 µM | 0.587 µM | 0.729 µM | 2.53 µM | –
CC(C)(CN1CCOCC1)C(=O)/C=C/c1ccc(/C=C/C(=O)C(C)(C)CN2CCOCC2)cc1 | 4.63 µM | 4.92 µM | 3.15 µM | 3.78 µM | – | 4.11 µM | – | 1.54 µM | – | – | – | – | – | – | – | – | – | – | – | –
CC(=Nc1ccccc1)C1=C(O)C(Cc2cccc(F)c2)NC1=O (configuration not stated) | 0.184 µM | > 100 µM | > 100 µM | > 100 µM | – | > 100 µM | > 100 µM | > 100 µM | – | 0.0312 µM | 0.0694 µM | 0.0789 µM | – | 0.0857 µM | 0.0487 µM | 0.0667 µM | – | 0.178 µM | 1.93 µM | 0.049 µM
COc1cc(OC)cc(-c2nc3sccn3c2/C=N/N=C(N)N)c1 | 17.7 µM | 17.5 µM | > 50 µM | 15.2 µM | – | 14.4 µM | 13.4 µM | 12.8 µM | 16.1 µM | 8.94 µM | 8.58 µM | 15.8 µM | – | 7.71 µM | 6.96 µM | 6.49 µM | 7.74 µM | 6.91 µM | 13.6 µM | 8.03 µM
S=c1nc(C(c2ccccc2)c2ccccc2)[nH][nH]1 | > 100 µM | > 100 µM | > 100 µM | – | > 100 µM | > 100 µM | – | > 100 µM | > 100 µM | – | – | – | – | – | – | – | – | – | – | –
C=C1C(=O)O[C@H]2[C@H]1CC/C(COC(=O)c1cn(C)c3ccccc13)=C\CC[C@@]1(C)O[C@@H]21 | 6.98 µM | 2.09 µM | 2.1 µM | – | 3.08 µM | 2.88 µM | 3.3 µM | 0.81 µM | 2.65 µM | 2.41 µM | 0.828 µM | 0.775 µM | 1.55 µM | 1.46 µM | 1.41 µM | 0.228 µM | 1.32 µM | 1.05 µM | 2.47 µM | –
Cn1cnc([N+](=O)[O-])c1Sc1nnnn1C | > 100 µM | 30.5 µM | 32.6 µM | 31.8 µM | 27.3 µM | 32.1 µM | 28.4 µM | 26.6 µM | 29.8 µM | – | – | – | – | – | – | – | – | – | – | –
CCC[CH2][Sn]([CH2]CCC)([CH2]CCC)[O]C(=O)C(OC(C)=O)c1ccccc1 (configuration not stated) | 0.301 µM | 0.274 µM | 0.292 µM | 0.3 µM | 0.274 µM | 0.295 µM | 0.267 µM | 0.23 µM | 0.284 µM | 0.163 µM | 0.143 µM | 0.157 µM | 0.142 µM | 0.157 µM | 0.138 µM | 0.107 µM | 0.149 µM | – | – | 0.159 µM
CC(N)Cc1ccc(Cl)cc1 (configuration not stated) | > 100 µM | > 100 µM | > 100 µM | > 100 µM | > 100 µM | > 100 µM | > 100 µM | > 100 µM | > 100 µM | – | – | – | – | – | – | – | – | – | – | –
O=c1/c(=C/c2c(O)ccc3ccccc23)sc2nc3ccccc3n12 | > 100 µM | > 100 µM | > 100 µM | > 100 µM | > 100 µM | > 100 µM | > 100 µM | > 100 µM | > 100 µM | – | – | – | – | – | – | – | – | – | – | –
O=C1CSC(c2ccc(-c3nc4ccccc4[nH]3)cc2)=N1 | > 50 µM | > 50 µM | > 50 µM | > 50 µM | – | > 50 µM | > 50 µM | > 50 µM | > 50 µM | 29.5 µM | 24.7 µM | 19.8 µM | – | 42.5 µM | 19.7 µM | 15.7 µM | 20.3 µM | > 50 µM | > 50 µM | > 50 µM
COc1cc(O)c(C(=O)CC(C)=O)c(OC)c1 | > 100 µM | > 100 µM | > 100 µM | > 100 µM | > 100 µM | > 100 µM | > 100 µM | > 100 µM | > 100 µM | – | – | – | – | – | – | – | – | – | – | –
COc1ccc2c3c(c(C(=O)O)oc13)CCC2 | > 100 µM | > 100 µM | > 100 µM | – | > 100 µM | > 100 µM | > 100 µM | > 100 µM | > 100 µM | – | – | – | – | – | – | – | – | – | – | –
NCCOCn1cc(Cc2cccc(OCc3ccccc3)c2)c(=O)[nH]c1=O | > 100 µM | – | > 100 µM | – | > 100 µM | > 100 µM | > 100 µM | > 100 µM | – | – | – | – | – | – | – | – | – | – | – | –
Cc1ccc(NC(=O)C(=O)C(C(=O)c2ccc3ccccc3c2)C2OC(=O)c3ccccc32)c(C)c1 (configuration not stated) | – | 60.4 µM | 36.7 µM | 32 µM | 31.2 µM | 19.7 µM | 36.9 µM | 32.2 µM | 41.4 µM | – | – | – | – | – | – | – | – | – | – | –
O=C1OC(c2ccccc2)(c2ccccc2)c2ccc3ccc(F)cc3c21 | > 100 µM | > 100 µM | > 100 µM | > 100 µM | > 100 µM | > 100 µM | > 100 µM | > 100 µM | > 100 µM | – | – | – | – | – | – | – | – | – | – | –
CSC(=Nc1ccccc1Cl)NC(=O)c1ccc(Br)cc1 | > 100 µM | > 100 µM | > 100 µM | 97.4 µM | 66.3 µM | 86.3 µM | > 100 µM | > 100 µM | > 100 µM | – | – | – | – | – | – | – | – | – | – | –
